Test results published in ChEMBL document CHEMBL1201862, “PubChem BioAssay data set” (2004).
The source made the active and inactive calls.

Key:
[1] = reduced cellular PGC1a acetyl-lysine signal – cell-based, cherry-picked samples, dose response (AID 720514); assay type: functional;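 note: potency may reflect raised or lowered acetylation signal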
[2] = T. cruzi growth inhibition in host cells, dose response, cell-based, plate reader, dry powder, set 2 (AID 652275); assay type: functional
[3] = target: T1, Methionyl-tRNA synthetase, putative (Trypanosoma brucei brucei, UniProt Q38C91); assay type: functional, Trypanosoma brucei brucei strain 927/4 GUTat10.1
T1 sequence (Q38C91 whole entry): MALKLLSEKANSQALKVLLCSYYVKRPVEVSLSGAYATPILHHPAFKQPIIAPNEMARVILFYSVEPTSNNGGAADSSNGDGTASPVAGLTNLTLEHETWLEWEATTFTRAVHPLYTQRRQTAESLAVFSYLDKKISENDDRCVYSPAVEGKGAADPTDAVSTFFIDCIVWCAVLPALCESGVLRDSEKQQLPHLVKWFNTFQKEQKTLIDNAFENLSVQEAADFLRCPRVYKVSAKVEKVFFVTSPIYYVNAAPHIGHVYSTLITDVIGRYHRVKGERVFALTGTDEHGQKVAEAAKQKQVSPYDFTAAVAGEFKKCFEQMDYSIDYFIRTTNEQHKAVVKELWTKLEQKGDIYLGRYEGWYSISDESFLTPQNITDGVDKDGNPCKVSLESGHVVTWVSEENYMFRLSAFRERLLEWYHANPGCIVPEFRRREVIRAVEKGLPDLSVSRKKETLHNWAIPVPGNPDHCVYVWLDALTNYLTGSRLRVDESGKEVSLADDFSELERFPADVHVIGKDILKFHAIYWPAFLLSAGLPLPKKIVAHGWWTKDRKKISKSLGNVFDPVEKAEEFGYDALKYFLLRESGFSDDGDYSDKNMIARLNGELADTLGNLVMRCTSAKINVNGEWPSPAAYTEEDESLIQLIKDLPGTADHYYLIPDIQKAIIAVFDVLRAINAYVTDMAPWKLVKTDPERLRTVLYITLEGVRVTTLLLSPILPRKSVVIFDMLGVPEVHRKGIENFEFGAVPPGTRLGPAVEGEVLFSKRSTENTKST

[4] = Counterscreen for inhibitors of Trypanosoma brucei methionyl tRNA synthetase (MetRS): Luminescence-based cell-based high throughput dose response assay to identify compounds that are cytotoxic to Jurkat human T lymphocyte cells.; assay type: functional
[5] = Late stage counterscreen for inhibitors of Trypanosoma brucei methionyl tRNA synthetase (MetRS): Luminescence-based cell-based high throughput dose response assay to identify compounds that are cytotoxic to Jurkat human T lymphocyte cells.; assay type: functional
[6] = target: T1, Methionyl-tRNA synthetase, putative; assay type: functional, Trypanosoma brucei brucei strain 927/4 GUTat10.1; remark: listed apart in the source
Beta-galactosidase = Beta-galactosidase (Escherichia coli, UniProt Q8VNN2); assay: Dose response counterscreen for EBI2 assay utilizing the enzyme, b-galactosidase.; assay type: functional
Sequence of Beta-galactosidase (Q8VNN2 whole entry): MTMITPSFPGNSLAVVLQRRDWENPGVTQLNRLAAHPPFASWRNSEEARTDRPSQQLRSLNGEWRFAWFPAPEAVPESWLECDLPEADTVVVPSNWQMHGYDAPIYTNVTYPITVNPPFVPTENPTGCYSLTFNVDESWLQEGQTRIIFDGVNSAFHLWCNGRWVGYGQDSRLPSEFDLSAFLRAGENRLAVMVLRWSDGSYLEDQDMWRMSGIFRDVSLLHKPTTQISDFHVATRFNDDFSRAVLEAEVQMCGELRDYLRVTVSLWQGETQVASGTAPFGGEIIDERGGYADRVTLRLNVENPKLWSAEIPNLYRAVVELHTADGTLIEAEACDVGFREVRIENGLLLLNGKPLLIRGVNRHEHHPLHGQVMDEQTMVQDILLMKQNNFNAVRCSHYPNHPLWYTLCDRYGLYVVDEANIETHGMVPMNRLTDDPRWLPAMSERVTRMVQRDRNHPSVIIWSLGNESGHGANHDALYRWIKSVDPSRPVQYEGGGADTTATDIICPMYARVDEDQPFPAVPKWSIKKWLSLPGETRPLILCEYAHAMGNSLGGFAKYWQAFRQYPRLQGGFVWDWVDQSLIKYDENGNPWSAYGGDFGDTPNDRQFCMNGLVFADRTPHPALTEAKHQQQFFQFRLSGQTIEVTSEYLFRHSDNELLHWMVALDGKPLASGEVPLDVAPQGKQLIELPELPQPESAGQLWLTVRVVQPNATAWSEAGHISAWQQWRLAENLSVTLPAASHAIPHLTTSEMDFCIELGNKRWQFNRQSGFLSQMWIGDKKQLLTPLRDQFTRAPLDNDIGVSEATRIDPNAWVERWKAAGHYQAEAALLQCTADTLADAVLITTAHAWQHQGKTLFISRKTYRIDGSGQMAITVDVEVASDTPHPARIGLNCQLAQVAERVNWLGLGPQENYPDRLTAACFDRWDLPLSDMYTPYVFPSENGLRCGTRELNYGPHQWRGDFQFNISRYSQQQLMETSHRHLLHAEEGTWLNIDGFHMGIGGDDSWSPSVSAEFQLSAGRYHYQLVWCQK

[7] = Late stage assay provider results from the probe development effort to identify selective inhibitors of heat shock protein 90 (HSP90): Absorbance-based cell proliferation assay in SKBR3 cells.; assay type: functional; conditions: SK-BR-3
[8] = Late stage assay provider results from the probe development effort to identify selective inhibitors of heat shock protein 90 (HSP90): Absorbance-based cell proliferation assay in MCF7 cells.; assay type: functional
Estrogen receptor beta [9] = target: T2, Estrogen receptor beta (Homo sapiens, UniProt Q92731); assay: blockers of SRC-3 recruitment to ERβ – biochemical, ELISA, streptavidin-HRP readout, orthogonal assay, confirmation (AID 1060)
T2 sequence (Q92731 whole entry): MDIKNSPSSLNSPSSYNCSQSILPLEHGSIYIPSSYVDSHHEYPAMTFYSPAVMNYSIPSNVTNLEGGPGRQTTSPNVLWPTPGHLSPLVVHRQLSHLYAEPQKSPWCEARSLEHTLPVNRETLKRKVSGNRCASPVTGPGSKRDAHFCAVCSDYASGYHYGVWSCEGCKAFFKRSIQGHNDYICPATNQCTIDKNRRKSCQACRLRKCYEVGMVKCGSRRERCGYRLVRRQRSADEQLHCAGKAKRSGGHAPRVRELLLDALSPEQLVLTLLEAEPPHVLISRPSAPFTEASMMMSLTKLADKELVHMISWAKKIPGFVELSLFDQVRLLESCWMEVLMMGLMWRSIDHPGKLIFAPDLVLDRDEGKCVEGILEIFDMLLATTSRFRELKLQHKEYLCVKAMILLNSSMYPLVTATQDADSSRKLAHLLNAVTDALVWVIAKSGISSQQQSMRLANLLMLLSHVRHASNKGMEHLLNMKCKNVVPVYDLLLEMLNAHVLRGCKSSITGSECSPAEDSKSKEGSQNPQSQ

Estrogen receptor beta [10] = target: T2, Estrogen receptor beta
[11] = viability loss in HEK293T cells – cell-based, cherry-picks, cytotoxicity control for HIV Vif inhibitor project, dose response (AID 652208); assay type: functional
[12] = tested on: Streptococcus sp. 'group A'; assay: Streptococcus pyogenes SK(-)GAS viability under kanamycin – luminescence, BacTiterGlo, confirmation, counter-screen for streptokinase expression inhibitor project, dose response (AID 1900); assay type: functional, organism-based
Streptococcus = assay: GAS UMAA2166 growth inhibition – luminescence, BacTiterGlo, counter-screen for streptokinase expression inhibitor project, dose response (AID 1915); assay type: functional, organism-based;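 note: potency for reduction of bacterial viability or growth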
[13] = HGIII-sPLA2 enzyme inhibition potency – biochemical, QFRET, IC50, dose response (AID 743457);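 note: green fluorescence rise as the enzyme cleaves BODIPY PC-A2 in liposomes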
[14] = viability loss in HEK293 cells – cell-based, plate reader, cherry-picked samples, cytotoxicity control, dose response (AID 743446); assay type: functional
[15] = blockade of melanocortin 4 receptor signaling – cell-based, plate reader, cherry pick, counter-screen for LGR2 antagonist project, dose response (AID 743444); assay type: functional;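 note: transfected HEK 293 cells stimulated with alpha-MSH peptide; potency of inhibitors of the alpha-MSH evoked signal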
[16] = blockers of bursicon-stimulated LGR2 cAMP reporter – cell-based, HEK293, CRE-luciferase reporter, cherry pick, set 2, dose response (AID 743343); assay type: functional;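 note: transfected cells were stimulated with diluted bursicon conditioned medium after compound addition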
[17] = toxicity toward HepG2 liver cells – cell-based, plate reader, cherry-pick, antagonist series, cytotoxicity control, dose response (AID 743416); assay type: functional
Kallikrein-7 = Kallikrein-7 (Homo sapiens, UniProt P49862); assay: Fluorescence Intensity-based biochemical primary high throughput dose response assay to identify activators of kallikrein-7 (K7) zymogen.
Sequence of Kallikrein-7 (P49862 whole entry): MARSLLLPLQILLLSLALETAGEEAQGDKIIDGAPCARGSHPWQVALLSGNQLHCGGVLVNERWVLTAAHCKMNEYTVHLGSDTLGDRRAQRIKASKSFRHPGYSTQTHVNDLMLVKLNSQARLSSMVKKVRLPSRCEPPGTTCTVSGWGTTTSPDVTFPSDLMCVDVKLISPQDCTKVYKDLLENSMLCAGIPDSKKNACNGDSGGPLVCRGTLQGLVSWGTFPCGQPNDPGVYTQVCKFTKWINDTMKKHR

[18] = target: Metabotropic glutamate receptor 3 (Rattus norvegicus, UniProt P31422); assay: inhibitors of rat mGlu3 Galpha15 signaling – TREx293 cells, calcium flux, mGlu3 NAM project, dose response (AID 651840); assay type: functional
Sequence of Metabotropic glutamate receptor 3 (P31422 whole entry): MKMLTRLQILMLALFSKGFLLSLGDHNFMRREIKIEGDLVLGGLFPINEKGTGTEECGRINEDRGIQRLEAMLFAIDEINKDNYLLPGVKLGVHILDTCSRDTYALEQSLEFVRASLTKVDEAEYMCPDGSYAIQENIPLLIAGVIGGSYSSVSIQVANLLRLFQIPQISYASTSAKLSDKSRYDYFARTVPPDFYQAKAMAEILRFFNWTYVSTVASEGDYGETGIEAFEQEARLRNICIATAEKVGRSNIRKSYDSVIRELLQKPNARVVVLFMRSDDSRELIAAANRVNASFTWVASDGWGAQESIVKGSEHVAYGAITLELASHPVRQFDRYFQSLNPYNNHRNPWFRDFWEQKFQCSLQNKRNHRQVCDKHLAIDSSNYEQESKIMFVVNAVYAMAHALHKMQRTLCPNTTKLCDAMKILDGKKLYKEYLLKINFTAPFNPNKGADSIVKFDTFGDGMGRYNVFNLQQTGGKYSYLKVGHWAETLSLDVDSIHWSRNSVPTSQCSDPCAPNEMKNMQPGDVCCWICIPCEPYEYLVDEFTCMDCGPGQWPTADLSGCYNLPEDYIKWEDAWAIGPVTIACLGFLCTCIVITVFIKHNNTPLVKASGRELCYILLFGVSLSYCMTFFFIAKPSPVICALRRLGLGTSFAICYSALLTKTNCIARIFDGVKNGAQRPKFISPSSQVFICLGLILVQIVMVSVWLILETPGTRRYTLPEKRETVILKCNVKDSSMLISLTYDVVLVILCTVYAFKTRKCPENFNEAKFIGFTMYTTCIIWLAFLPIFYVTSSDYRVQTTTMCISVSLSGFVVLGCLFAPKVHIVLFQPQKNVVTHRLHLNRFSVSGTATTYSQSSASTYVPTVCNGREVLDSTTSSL

SMILES: C[C@H](CO)N1C[C@H](C)[C@@H](CN(C)CC2CCOCC2)Oc2ncc(Br)cc2C1=O
- AC50 [1]: 36.4 µM (active)

SMILES: CC(C)N1CC2(CN(Cc3ccc(-c4ccccc4)cc3)C2)Oc2c(NC(=O)c3ccncc3)cccc2C1=O
- AC50 [2]: 0.00131 µM (active)

SMILES: O=C1[C@@H]2Cc3c([nH]c4ccccc34)C(c3cccc([N+](=O)[O-])c3)N2C(=O)CN1CCCO (stereo partly specified)
- IC50 [3]: 0.528 µM (active)
- IC50 [4]: 83.3 µM (inactive)
- IC50 [5]: > 83.3 µM (inactive)
- IC50 [6]: 0.911 µM (active)

SMILES: O=C(/C=C/c1ccc([N+](=O)[O-])cc1)N1CCN(S(=O)(=O)c2cccs2)CC1
- IC50 (Beta-galactosidase): > 80 µM (inactive)

SMILES: COC(=O)c1cccc(COc2ccc3cc(Br)c(=O)oc3c2)c1
- IC50 [7]: > 100 µM (inactive)
- IC50 [8]: > 100 µM (inactive)

SMILES: CCOc1c(C(N)=O)c(-c2ccccc2)c2c(O)nc3ccccc3n12
- IC50 (Estrogen receptor beta [9]): > 50 µM (not active)
- IC50 (Estrogen receptor beta [10]): 33.6 µM (not active)
- AC50 [11]: 49.9 µM (active)

SMILES: Cc1ccc(C(=O)NC(=S)NNC(=O)c2ccccc2O)cc1
- EC50 [12]: 1.29 µM (active)
- EC50 (Streptococcus): 5.63 µM (active)
- IC50 [13]: > 122 µM (inactive)

SMILES: COc1ccc(NC(=O)Nc2cccc([N+](=O)[O-])c2)cc1Cl
- AC50 [14]: > 52 µM (inactive)
- AC50 [15]: 34.3 µM (active)
- AC50 [16]: 33.1 µM (active)
- AC50 [17]: 26.8 µM (active)

SMILES: Nc1nc2ccc(Cl)cc2cc1C(=O)NCCCN1CCOCC1
- EC50 (Kallikrein-7): 28.3 µM (inactive)

SMILES: COc1ccc(C#Cc2ccc(C(=O)N3CCCC(C)(O)C3)cc2)cc1 (stereo unspecified)
- IC50 [18]: 0.525 µM
